This is an account of results in article PMC8765251, “Orally administered intelligent self-ablating nanoparticles: a new approach to improve drug cellular uptake and intestinal absorption” (Drug Delivery, 2022).

In general, AUC refers to the area under the concentration-time curve, a measure of exposure.

SMILES strings stand for the structures. Read-outs that look alike come from different tables or passages of the source.

A short description of the data set: Pharmacokinetic study. It counts as in vivo. The conditions noted are these: SD rats; for AUC: serum liraglutide by ELISA, n = 5/group, mean ± SD. On the procedure: SD rats (GemPharmatech Co., Ltd.) weighing 200–220 g were fasted overnight and randomly divided into five groups(n = 5/group): […] The first four groups were administered orally. After a single administration, blood was collected and centrifuged, and serum was collected. An ELISA Kit for liraglutide was used to measure the blood concentration of liraglutide. The assay was performed according to the instructions of the ELISA Kit for liraglutide. The processed samples were tested using a microplate reader (CYT5MV microplate reader, BioTek USA Botten Instruments Co., Ltd.), and the drug concentration was calculated by plotting the curve.

As to `CCCCCCCCCCCCCCCC(=O)N[C@@H](CCC(=O)NCCCC[C@H](NC(=O)[C@H](C)NC(=O)[C@H](C)NC(=O)[C@H](CCC(N)=O)NC(=O)CNC(=O)[C@H](CCC(=O)O)NC(=O)[C@H](CC(C)C)NC(=O)[C@H](Cc1ccc(O)cc1)NC(=O)[C@H](CO)NC(=O)[C@H](CO)NC(=O)[C@@H](NC(=O)[C@H](CC(=O)O)NC(=O)[C@H](CO)NC(=O)[C@@H](NC(=O)[C@H](Cc1ccccc1)NC(=O)[C@@H](NC(=O)CNC(=O)[C@H](CCC(=O)O)NC(=O)[C@H](C)NC(=O)[C@@H](N)Cc1cnc[nH]1)[C@@H](C)O)[C@@H](C)O)C(C)C)C(=O)N[C@@H](CCC(=O)O)C(=O)N[C@@H](Cc1ccccc1)C(=O)N[C@H](C(=O)N[C@@H](C)C(=O)N[C@@H](Cc1c[nH]c2ccccc12)C(=O)N[C@@H](CC(C)C)C(=O)N[C@H](C(=O)N[C@@H](CCCNC(=N)N)C(=O)NCC(=O)N[C@@H](CCCNC(=N)N)C(=O)NCC(=O)O)C(C)C)[C@@H](C)CC)C(=O)O` [liraglutide], the “BR (relative bioavailability)” value by setting is: (oral (i.g.) versus subcutaneous liraglutide, dose-normalised AUC) 5.37%; (subcutaneous injection, the reference) 100%. Besides, the AUC amounted to 1061.18 ± 56.55 pg·h/mL (single oral administration) and 1980 ± 109 pg·h/mL (Sprague-Dawley, rat, sc, single subcutaneous injection, read-out: AUC).
